Conditions: pH 7.4
Method: A 10% (m/m) aqueous solution of the test substances (butronics as well as reference materials Kolliphor EL and HS15) is prepared in phosphate buffer pH 7.4. For each test substance and reference three 5 ml brown glass ampoules with screw caps are filled with 5 g of the prepared aqueous solution.
The respective API (as for example Fenofibrate/Itraconazole/Nilotinib) to be analyzed is then added (about 30 mg-500 mg per 5 g of 10% test substance solution, enough that the added powder doesn't dissolve anymore) in order to obtain a supersaturated solution.
After stirring for 72 h at room temperature, each sample is filtered through a 0.22 μm PVDF filter and the concentration of the respective API in the filtrate is quantified by HPLC.
The average of the 3 replicates per API is calculated and the obtained concentrations are put in relation to Kolliphor EL, which is set to 100%.

- Solubilization of small molecules (mean value in %): 96%
Substance: POE sorbitan monooleate [Polysorbate 80]

Source: US20260216349A1, “STABILIZED BIOPOLYMER COMPOSITION, THEIR MANUFACTURE AND USE” (BASE SE, priority 2023, published 2026)
